Where a name gives a salt, the structure may show the parent alone. Read-outs that look alike come from different tables or passages of the source.
How the values were obtained:
Format in all cases: physicochemical
[1] = Milling studies (FRITSCH Pulverisette 14 Rotor Speed Mill)
Experimental: The milling process was performed by the FRITSCH Pulverisette 14 Rotor Speed Mill supplied with circular sieve stainless steel with trapezoidal 0.080 mm diameter openings. The samples were passed through the mill twice at 20.000 rpm motor speed. The sample is assayed for title and degradation products by TLC and HPLC, physical state by DSC, water content by TGA, particle size distribution by Mercury Instrusion Porosimetry. The mi 11ed compounds are formulated in capsules and tablets at very low dose level (0.5 mg) by direct mixing and direct compression manufacturing method, respectively.

[2] = Moisture sorption/desorption studies (hygrostat, storage at different temperatures and relative humidity); set-up: water content (Table VI): unit not given here; conditions: for moisture absorption: different temperatures and relative humidity, in words
Experimental: The determination of the sorption isotherms was carried out in a hygrostat.
At suitable intervals, the sample was weighed by means of a sample balance. The atmosphere in the hygrostat and therefore around the sample of compound 1a (1b) and 2a (2b) was conditioned and kept by a saturated solutions of a suitable salt:
Na Cl saturated solution 75.3% RH/25° C. 74.8% RH/37° C.
KNO3 saturated solution 93.7% RH/25° C. 90.0% RH/37° C.
At the end of the experiment, after completing the hysteresis, that is the adsorption--desorption cycle of humidity, the compound was assayed for the title and degradation products by TLC and HPLC, the physical state by DSC and water content by TGA.

[3] = Accelerated stability tests in tablets and capsules; conditions: tablets and capsules in PVC/PVDC blister with aluminium foil
Source text: (§1) Drug stability in these final compositions may be measured in accelerated stability tests or in long term real time stability tests. In accelerated stability tests, the above pharmaceutical compositions are exposed at high temperatures at different degrees of relative humidity for a period of time. Such tests are considered to be indicative of the stability of the composition at normal conditions. In long term real time stability studies the final compositions are exposed to normal conditions of storage at ambient temperatures at different degrees of relative humidity.
(*)according to H. Leven Berger Pharm. Act. Helv. 50 (1975) 88-91 it is
equivalent to 2 years storage at room temperature. Tablets and capsules
are packaged in PVC/PVDC blister with aluminium foil.
(*)according to "Guidelines for stability studies for Human Drugs and
Biologics" (1987) (USA/FDA) it is equivalent to 2 years at room
temperature. Tablets and capsules are packaged in PVC/PVDC blister with […]

[4] = Long-term real time stability tests in tablets and capsules; conditions: tablets and capsules in PVC/PVDC blister with aluminium foil
Source text: as §1
Tablets and capsules are packaged in PVC/PVDC blister with aluminium foil

[5] = Moisture content during tablet manufacturing (mixing and tableting); conditions: for Moisture content: % on the weight of compound 1a
Source text: As a consequence, storage of compound 2a may be effected in normal conditions and no particular precautions are needed to avoid exposure to moisture. The titer of compound 2a, when it is stored in normal conditions, is therefore maintained at difference with compound 1a which, in the same conditions, may show different titles according to the water content. The hygroscopicity may also influence the drug title immediately after the manufacturing of tablets. In fact during the process of manufacturing the drug exposed at normal ambient conditions where it can take up moisture.

SMILES: CCn1c(=O)n(C(=O)N[C@H]2C[C@H]3CC[C@@H](C2)N3C)c2ccccc21 [Compound 1b, endo-3-ethyl-2,3-dihydro-N-(8-methyl-8-azabicyclo-[3.2.1]oct-3-yl)-2-oxo-1H-benzimidazole-1-carboxamide hydrochloride, reference compound]
- humidity content ([1]; after milling, hydrochloride): 2.32%
- humidity content ([1]; before milling): 0.87%
- water content (Table VI) ([2]; 37° C., 49.2% RH, 2 h, hydrochloride): 2.18
- water content (Table VI) ([2]; 37° C., 49.2% RH, 4 h, hydrochloride): 2.58
- water content (Table VI) ([2]; 37° C., 49.2% RH, 6 h, hydrochloride): 3.01
- water content (Table VI) ([2]; 37° C., 49.2% RH, 1 d, hydrochloride): 4.07
- water content (Table VI) ([2]; 37° C., 49.2% RH, 4 d, hydrochloride): 4.81
- water content (Table VI) ([2]; 37° C., 49.2% RH, 10 d, hydrochloride): 4.82
- water content (Table VI) ([2]; 37° C., 49.2% RH, 30 d, hydrochloride): 4.81
- water content (Table VI) ([2]; 37° C., 49.2% RH, time 0, hydrochloride): 1.13
- water content (Table VI) ([2]; 37° C., 74.8% RH, 2 h, hydrochloride): 4.99
- water content (Table VI) ([2]; 37° C., 74.8% RH, 4 h, hydrochloride): 4.93
- water content (Table VI) ([2]; 37° C., 74.8% RH, 6 h, hydrochloride): 4.97
- water content (Table VI) ([2]; 37° C., 74.8% RH, 1 d, hydrochloride): 4.90
- water content (Table VI) ([2]; 37° C., 74.8% RH, 4 d, hydrochloride): 4.92
- water content (Table VI) ([2]; 37° C., 74.8% RH, 10 d, hydrochloride): 4.85
- water content (Table VI) ([2]; 37° C., 74.8% RH, 30 d, hydrochloride): 4.81
- water content (Table VI) ([2]; 37° C., 74.8% RH, time 0, hydrochloride): 1.13
- moisture absorption ([2]; hydrochloride): marked tendency to moisture absorption

SMILES: CN1C2CCC1CC(NC(=O)n1c(=O)[nH]c3ccccc31)C2 (stereo not drawn) [Compound 1a, endo-2,3-dihydro-N-(8-methyl-8-azabicyclo[3.2.1]oct-3-yl)-2-oxo-1H-benzimidazole-1-carboxamide, reference compound]
- particle size reduction (milling efficiency) ([1]; Mercury Porosimetry Analysis, in words): same rank order
- percentage of degradation products after milling ([1]; rotor speed of 20,000 rpm): 0.65%
- % degradation ([3]; 1 month/55° C., 43200 min): 2.0%
- degraded at 2160 h ([3]; tablets and capsules, 3 months/40° C.-75% RH, read-out: % degradation): 0.8%
- degraded at 2160 h ([3]; tablets and capsules, 3 months/55° C., read-out: % degradation): 3.2%
- degraded at 4320 h ([3]; tablets and capsules, 6 months/40° C.-75% RH, read-out: % degradation): 1.7%
- % degradation ([4]; 3 months/40° C., 129600 min): 0.6%
- % degradation ([4]; 6 months/30° C.-70% RH, 259200 min): 0.5%
- % degradation ([4]; 6 months/40° C., 259200 min): 1.1%
- water content (Table III) ([2]; 37° C., 75% RH, 2 h): 0.34%
- water content (Table III) ([2]; 37° C., 75% RH, 4 h): 0.39%
- water content (Table III) ([2]; 37° C., 75% RH, 6 h): 0.59%
- water content (Table III) ([2]; 37° C., 75% RH, 1 d): 1.95%
- water content (Table III) ([2]; 37° C., 75% RH, 5 d): 5.09%
- water content (Table III) ([2]; 37° C., 75% RH, 9 d): 5.13%
- water content (Table III) ([2]; 37° C., 75% RH, 15 d): 5.13%
- water content (Table III) ([2]; 37° C., 94% RH, 2 h): 1.93%
- water content (Table III) ([2]; 37° C., 94% RH, 4 h): 3.41%
- water content (Table III) ([2]; 37° C., 94% RH, 6 h): 4.68%
- water content (Table III) ([2]; 37° C., 94% RH, 1 d): 5.04%
- water content (Table III) ([2]; 37° C., 94% RH, 5 d): 5.06%
- water content (Table III) ([2]; 37° C., 94% RH, 9 d): 5.06%
- water content (Table III) ([2]; 37° C., 94% RH, 15 d): 5.04%
- water content (Table III) ([2]; Room Temperature, 75% RH, 2 h): 0.68%
- water content (Table III) ([2]; Room Temperature, 75% RH, 4 h): 0.74%
- water content (Table III) ([2]; Room Temperature, 75% RH, 6 h): 0.78%
- water content (Table III) ([2]; Room Temperature, 75% RH, 1 d): 1.25%
- water content (Table III) ([2]; Room Temperature, 75% RH, 4 d): 2.54%
- water content (Table III) ([2]; Room Temperature, 75% RH, 8 d): 3.5%
- water content (Table III) ([2]; Room Temperature, 75% RH, 20 d): 4.59%
- water content (Table III) ([2]; Room Temperature, 75% RH, 40 d): 4.95%
- water content (Table III) ([2]; Room Temperature, 94% RH, 2 h): 1.28%
- water content (Table III) ([2]; Room Temperature, 94% RH, 4 h): 1.92%
- water content (Table III) ([2]; Room Temperature, 94% RH, 6 h): 2.41%
- water content (Table III) ([2]; Room Temperature, 94% RH, 1 d): 5.33%
- water content (Table III) ([2]; Room Temperature, 94% RH, 4 d): 5.39%
- water content (Table III) ([2]; Room Temperature, 94% RH, 8 d): 5.39%
- water content (Table III) ([2]; Room Temperature, 94% RH, 20 d): 5.4%
- water content (Table III) ([2]; Room Temperature, 94% RH, 40 d): 5.42%
- moisture absorption [2]: marked tendency to moisture absorption
- Moisture content ([5]; Final (b), tableting): 1.02%
- Moisture content ([5]; Intermediate (a), mixing): 0.66%
- Moisture content ([5]; Start): 0.62%
- water content during manufacturing ([5]; mixing (a) and tableting (b) phases, in words): increases its water content
